For this data set the following is noted: Crystal; visual observation.

± gives the expanded uncertainty stated by the source.

Turning to `COC(=O)C1=C(C)NC(C)=C(C(=O)OC)C1c1ccccc1[N+](=O)[O-]`, the Normal melting temperature turned out to be 173.50 ± 2.1 °C.

Values taken from the NIST ThermoML archive (doi:10.1016/j.jct.2016.07.035).
